Source: patent US20110171225A1, “Novel Plasmodium Falciparum Gene Encoding Signal Peptide Peptidase and Method of Using Inhibitors Thereof for Inhibiting Malarial Infection” (The Board of Trustees of the University of Illinois, priority 2008, published 2011)
“Also recorded” adds a separate entry of the source. Where two headings read alike, the source gives them in different places. No end group written: not given here.

B1: native Plasmodium falciparum signal peptide peptidase (PfSPP) (enzyme)
chain: MNLLKLIGKNKKMKNENMGNSIFYYSCYVIIVLTIILSKFVVIPLMAQMFLYTFITIYIGSHDSLKQLEIDDKTKKSDNITAYDAMMFPVIGSAALLTLYFAYKFLDPFYVNLLLTLYLTLAGVFSLQGVFTTILEPVFPNFFKKDEYVKTFKLPNFIYKEPIVFNTNKGEIVCLILSFAIGLRWIFYKDFITHNVLAVSFCFQAISLVILSNFLIGFLLLSGLFVYDIFWVFGNDVMVTVAKSFEAPVKLLFPVSSDPVHYSMLGLGDIIIPGILMSLCLRFDYYLFKNNIHKGNLKKMFNDISIHESFKKYYFYTIIIFYELGLVVTYCMLFYFEHPQPALLYLVPACILAILACSICKREFKLMIKYQEITDKSNTVDDASKNKKKDKEEIPKIQETPVSNAKKRITNK
notes: also called native PfSPP; native P. falciparum PfSPP

Key:
[1] = tested on: P. falciparum FCR3; experiment: Parasite growth by [3H]-hypoxanthine incorporation; format: cell-based; details: FCR3 strain, mildly chloroquine-resistant
Description: (§1) Since the primary structure of PfSPP is highly conserved, the effect of these inhibitors on the growth of other P. falciparum strains was also tested. The parasite strains tested included two chloroquine-resistant P. falciparum strains (7G8, Dd2), one chloroquine-sensitive strain (HB3), and one mildly chloroquine-resistant strain (FCR3). Parasite growth was evaluated in these four strains by measuring [^3H]-hypoxanthine incorporation starting at 24 h post-invasion. Both (Z-LL)2-ketone and L-685,458 inhibited parasite growth in all 4 parasite strains with the IC50 values similar to 3D7 strain, while DAPT had no effect on any strain (Table 2).

[2] = tested on: P. falciparum 7G8; experiment: Parasite growth by [3H]-hypoxanthine incorporation; format: cell-based; details: 7G8 strain, chloroquine-resistant
Description: as §1

[3] = tested on: P. falciparum Dd2; experiment: Parasite growth by [3H]-hypoxanthine incorporation; format: cell-based; details: Dd2 strain, chloroquine-resistant
Description: as §1

[4] = tested on: P. falciparum HB3; experiment: Parasite growth by [3H]-hypoxanthine incorporation; format: cell-based; details: HB3 strain, chloroquine-sensitive
Description: as §1

[5] = tested on: incomplete version of PfSPP lacking the 6 amino acids; details: cited from earlier work
[6] = tested on: P. falciparum merozoite invasion of human erythrocytes; experiment: RBC invasion by synchronized schizonts with SPP inhibitors, new rings counted; format: cell-based; details: increasing concentrations, 20 h, versus DMSO
Description: To investigate the role of PfSPP in parasite invasion, a chemical approach was adopted by employing three synthetic inhibitors of mammalian membrane aspartyl proteases. The inhibitor (Z-LL)2-ketone (Calbiochem/EMD Biosciences, Gibbstown, N.J.) is specific for mammalian SPP, whereas the L-685,458 and DAPT inhibitors (both were gift of Dr. S. Sisodia of the University of Chicago) are known to be specific for the γ-secretase/Presenilin-1 complex (FIG. 8A). […] Herein, human erythrocytes with highly synchronized P. falciparum schizonts were incubated in the presence of increasing concentrations of (Z-LL)2-ketone, L-685,458, and DAPT. After 20 h of incubation, the rings were counted from the inhibitor and DMSO treated samples.

[7] = tested on: P. falciparum 3D7; experiment: Parasite growth in human erythrocytes from synchronized ring stage; format: cell-based; details: for inhibition of parasite replication (in words): 10 μM, after one cycle of asexual multiplication; for effect on parasite growth in erythrocytes (in words): ring stage parasites, 0.2% DMSO
Description: FIG. 9B depicts a graph indicating inhibition of parasite growth as a result of (Z-LL)2-ketone (▪), L-685,458 (•), and DAPT (♦) treatment. […] FIG. 9C is a schematic diagraph showing disruption of the P. falciparum (3D7 strain) PfSPP gene. PfSPP5′ and PfSPP3′ represent 5′ translated region (616 bp) and 3′ translated region (711 bp) of the PfSPP gene, respectively. Dashed lines represent bacterial vector sequences. Bold lines represent untranslated regions of the target PfSPP gene.
The P. falciparum strain 3D7 (obtained from MR4) was maintained in continuous culture in a 5% suspension of fresh type O+ human erythrocytes in RPMI 1640 at 37° C. under 5% CO2, 5% O2, and 90% N2 by the method of Trager and Jensen (Trager et al., 1976, Science 193:673-5). Ring-stage parasites were synchronized by using 5% sorbitol treatment and late-stage parasites were enriched to >95% by centrifugation in 63% (v/v) Percoll as described (Goel et al., 2003, Proc Natl Acad Sci USA 100:5164-5169). The parasite protein extract was prepared by solubilizing an enriched fraction of mature parasites with an extraction buffer (50 mM Tris-HCl, pH 8.0, 150 mM NaCl, 5 mM EDTA, 5 mM EGTA, 0.5% Triton X-100, 0.5% BSA) supplemented with 2 μg/ml Aprotinin, 1 μg/ml of Leupeptin, Pepstatin A, Bestatin, 10 mM PMSF, and a cocktail of protease inhibitors (Roche, Indianapolis, Ind.). The mixture was kept on ice for 1 h and centrifuged at 12,000 g for 20 min at 4° C. The supernatant was stored at −80° C. in aliquots and used in the antibody characterization and binding assays.
The effects of the three inhibitors on malaria parasite growth in human erythrocytes were examined Synchronized ring stage parasites were incubated with inhibitors in the presence of 0.2% DMSO. […] The precipitous decline in parasitemia presumably originated from inhibition of late rings or early trophozoites, as pyknotic parasites were observed after 24-48 h of culture in the presence of (Z-LL)2-ketone and L-685,458 (FIG. 4). Destruction of the inhibitor-treated parasites was irreversible, as no progression to the second asexual cycle was observed. In contrast, DAPT had little or no effect on parasite growth as compared to the DMSO-treated control (FIG. 9A).

[8] = molecular target: T1, γ-secretase/Presenilin-1 complex (Homo sapiens, UniProt P49768); details: (Z-LL)2-ketone up to 100 μM; cited from earlier work
T1 construct: host or cells: live mammalian cells

[9] = molecular target: T2, SPP (Homo sapiens, UniProt Q8TCT9); details: DAPT at 100 μM; cited from earlier work
T2 sequence (Q8TCT9 1-377): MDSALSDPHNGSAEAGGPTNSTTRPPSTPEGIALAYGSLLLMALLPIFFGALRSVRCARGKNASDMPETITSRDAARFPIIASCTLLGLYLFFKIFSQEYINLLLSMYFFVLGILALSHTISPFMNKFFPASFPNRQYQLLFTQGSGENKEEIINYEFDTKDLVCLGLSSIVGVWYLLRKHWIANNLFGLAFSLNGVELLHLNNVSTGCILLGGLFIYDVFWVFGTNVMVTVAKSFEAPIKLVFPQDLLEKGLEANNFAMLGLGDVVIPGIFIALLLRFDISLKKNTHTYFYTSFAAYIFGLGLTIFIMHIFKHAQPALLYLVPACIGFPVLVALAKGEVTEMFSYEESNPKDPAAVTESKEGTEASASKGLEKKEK

[10] = tested on: PfSPP; experiment: RBC-binding assay in suspension with native PfSPP from culture supernatant; design: species or system P. falciparum; details: soluble protein 40 μM, quantified by densitometry of immunoblot
Description: To carry out a RBC-binding assay in solution using native PfSPP, a spent culture supernatant of P. falciparum containing native PfSPP was prepared as follows. Trophozoites enriched from a 5% sorbitol-synchronized P. falciparum culture were allowed to mature for 16 h to form schizonts and merozoites. The parasites were left in the culture flask to lyse and the proteins were released into the culture supernatant. Aliquots of the culture were centrifuged at either 12,000 g for 20 min or 40,000 g for 15 min at 4° C. The culture supernatant and pellet were analyzed by immunoblot analysis using anti-PfSPP pAbs. The culture supernatant prepared at 12,000 g was stored at −80° C. in aliquots and used in subsequent RBC binding assays. In these assays, a 500 μl sample of P. falciparum culture supernatant was added to untreated, trypsin-treated, chymotrypsin-treated, or neuraminidase-treated intact human RBCs (50 μl packed volume) for 1 h at room temperature. The cells were centrifuged at 12,000 g for 30 s through a layer of silicone oil (500 μl). Proteins bound to RBCs were eluted by incubating the RBCs in 1.5 M NaCl (20 μl) for 30 min at room temperature. Salt-eluted proteins were analyzed by SDS-PAGE followed by immunoblotting using anti-PfSPP Abs. The pretreatment of intact RBCs with enzymes was carried out as described (Goel et al., 2003, Proc Natl Acad Sci USA 100:5164-5169). […]

[11] = molecular target: T3, GST-5ABC (GST fused to residues 720-761 of human erythrocyte band 3) (human, UniProt P02730 720-761); experiment: bead pull-down (GST-5ABC on GSH beads), immunoblot with anti-PfSPP/ER pAbs
T3 construct: also called soluble GST-5ABC; GST-5ABC conjugated to beads
T3 chain: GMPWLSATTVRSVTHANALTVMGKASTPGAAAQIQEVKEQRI

[12] = 3D7 strain, read-out: IC50 parasite growth
[13] = FIG. 9B legend, read-out: IC50 for live parasites

Molecule | IC50 [1] | IC50 [2] | IC50 [3] | IC50 [4] | inhibition of in vitro enzyme activity (in words) [5] | effect on parasite/merozoite invasion (in words) [6] | inhibition of parasite replication (in words) [7] | IC50 [7, 12] | IC50 [7, 13] | effect on parasite growth in erythrocytes (in words) [7] | inhibition of γ-secretase/Presenilin-1 activity (in words) [8] | effect on SPP activity (in words) [9] | decrease of binding of PfSPP to RBCs [10] | binding result [11]
CC(C)C[C@H](NC(=O)OCc1ccccc1)C(=O)N[C@@H](CC(C)C)C(=O)NCC(=O)CNC(=O)[C@H](CC(C)C)NC(=O)[C@H](CC(C)C)NC(=O)OCc1ccccc1 [(Z-LL)2-ketone] | 1230 ± 40 nM | 1120 ± 50 nM | 1080 ± 70 nM | 1060 ± 50 nM | inhibited | efficiently inhibited; also recorded: significant decrease in the number of new rings | complete inhibition | 985 nM | 985 nM | significant inhibition | does not inhibit |  |  | 
C[C@H](NC(=O)Cc1cc(F)cc(F)c1)C(=O)N[C@H](C(=O)OC(C)(C)C)c1ccccc1 [DAPT] | > 10000 nM | > 10000 nM | > 10000 nM | > 10000 nM |  | minimal effect; also recorded: no effect |  |  |  | no effect |  | no effect |  | 
CC(C)C[C@H](NC(=O)[C@H](Cc1ccccc1)C[C@@H](O)[C@H](Cc1ccccc1)NC(=O)OC(C)(C)C)C(=O)N[C@@H](Cc1ccccc1)C(N)=O [L-685,458] | 230 ± 30 nM | 210 ± 40 nM | 180 ± 30 nM | 190 ± 20 nM |  | efficiently inhibited; also recorded: significant decrease in the number of new rings | complete inhibition | 174 nM | 174 nM | significant inhibition | inhibited | inhibited |  | 
C[C@H](NC(=O)[C@@H](O)c1cc(F)cc(F)c1)C(=O)N[C@@H]1C(=O)N(C)c2ccccc2-c2ccccc21 [LY411,575] |  |  |  |  | inhibited |  |  |  |  |  |  |  |  | 
GST-5ABC: GST fusion protein of 5ABC peptide, residues 720-761 of human band 3 (SEQ ID NO:7) (GMPWLSATTVRSVTHANALTVMGKASTPGAAAQIQEVKEQRI; also: GST fusion; UniProt P02730 720-761, looked up, fragment) |  |  |  |  |  |  |  |  |  |  |  |  | 94% | 
B1 |  |  |  |  |  |  |  |  |  |  |  |  |  | binds
